Laboratory results published in patent US9670223B2, “Compounds with super-aspirin effects” (SOLVOTRIN THERAPEUTICS LTD., priority 2011, dated 2017).
Entries after “also recorded” stand apart in the source; their conditions may differ.

What was measured:
platelets = conditions: literature, cited from earlier work
P-selectin [1] = test: Flow cytometry of platelet P-selectin during TCIPA induced by 59M cells; type: cell-based, human; conditions: 300 μM
[2] = test system: platelet rich plasma (PRP); test: ADP-induced platelet aggregation in PRP; type: cell-based, human
Procedure: (§1) PRP and WP (2.5×10^8 platelets ml^−1) were prepared from blood. Briefly 36 ml whole blood was collected into 4 ml of 3.15% sodium citrate; this was centrifuged at 250 ¥g for 20 min (with gentle acceleration and deceleration). At this point PRP, which had separated from white blood cells and red blood cells, was gently removed. When WP were required this PRP was centrifuged at 700 g for 10 min (with gentle acceleration and deceleration) in the presence of prostacyclin. The platelet-poor plasma (PPP) was removed and the platelet pellet was washed three times with Tyrode's buffer, before being re-suspended in Tyrode's buffer to a concentration of 2.5 ¥108 platelets/ml.
(§2) Platelet aggregation was measured by light aggregometry. […] Aggregation was initiated by the addition of agonists, and monitored by Aggro-Link software for at least 6 min.
(§3) To study the aggregatory potency of ADP, the concentration-response (0.3-10 μM) curves were generated. Collagen at different concentrations (2-5 μg/ml) was also used to induce platelet aggregation. Submaximal concentrations of agonists, i.e. the concentrations that gave approximately 95% of the maximal aggregation were used to study the effects of inhibitors of aggregation. Aspirin and aspirin prodrugs was incubated for various intervals prior to the addition of aggregating agents.
(§4) Eserine (in DMSO, 10 μM, giving a final concentration≦0.25% DMSO, which pilot studies had determined not to affect platelet aggregation) was preincubated with PRP or WP for 5 min in the aggregometer with stirring at 900 r.p.m. before the addition of test compounds (ST0701-05), which were incubated in PRP or WP for a further 10 min prior to the addition of an agonist (10 μM ADP or 5 μg/ml Collagen) to induce platelet aggregation.
1H-[1,2,4]Oxadiazolo[4,3-a]quinoxalin-1-one (ODQ, dissolved in 100% DMSO, used at a final concentration of 10 μM, which gave a final concentration not more than 0.25% DMSO) was preincubated with PRP or WP for 5 min in the aggregometer with stirring at 900 r.p.m. before the addition of test compounds (ST0701-05), which were incubated in PRP or WP for a further 10 min prior to the addition of an agonist (10 μM ADP or 5 μg/ml collagen) to induce platelet aggregation.
Eserine (10 μM) was incubated with PRP for 5 min in the aggregometer with stirring at 900 r.p.m. before the addition of test compound ST0702 salicylate (500 μM), which was incubated in PRP for a further 10 min prior to the addition of the agonist ADP (10 μM) to induce platelet aggregation.

59M cells [3] = test: Tumour cell-induced platelet aggregation (TCIPA), static conditions, 59M; type: cell-based, human; conditions: static, WP, 300 and 500 μM, 59M 1×10^3/ml; listed as ISAS
From the text: ISAS meanwhile is hydrolysed to aspirin and salicylic acid. […] The structure of platelet-tumor cell aggregates was studied using phase-contrast microscopy (Alonso-Escolano et al., 2004; Jurasz et al., 2001). […] Aliquots of each sample were then taken for phase-contrast microscopy examination using an Olympus CKX41 microscope (Olympus America Inc., […].). Photomicrographs were captured using a digital camera and MicroFire (Olympus America Inc.) software (Alonso-Escolano et al., 2004; Jurasz et al., 2001).

GPIIb/IIIa = test: Flow cytometry of activated GPIIb/IIIa on platelets after collagen stimulation; type: cell-based, human; conditions: 60 μM
Procedure: (§5) In order to analyze receptor expression on the surface of individual platelets and to minimize platelet activation caused by sample preparation procedures, no stirring or vortexing steps were used. The abundance of activated GPIIb/IIIa and P-selectin on the surface of platelets in the presence and absence of inhibitors was measured by flow cytometry. Platelet samples were first activated with agonists either collagen or ADP. When platelet aggregation reached 50% maximal light transmission the reaction was terminated by 10-fold dilution with physiologic saline. Resting platelets were used as control. […] The activated GPIIb/IIIa platelet receptors were measured using PAC-1 monoclonal antibody at the same concentration as above. […] Following incubation, samples were diluted in FACS Flow fluid and analyzed within 5 min using a BD FACSArray (BD Biosciences, Oxford, UK). […] The instrument was set up to measure the size (forward scatter), granularity (side scatter) and cell fluorescence. […] Antibody binding was measured by analyzing individual platelets for fluorescence. The mean fluorescence intensity was determined after correction for cell autofluorescence. For each sample, the fluorescence was analyzed using a logarithmic scale. Fluorescence histograms were obtained for 10,000 individual events. […]

P-selectin [4] = test: Flow cytometry of P-selectin on platelets after collagen stimulation; type: cell-based, human; conditions: 60 μM
Procedure: as §5

washed platelets (WP) = test: Collagen-induced platelet aggregation in washed platelets (light aggregometry); type: cell-based, human; parameters: IC50: unit of the concentration uncertain
Procedure: as §1, §2, §3
To study the involvement of plasma BuChE in the activation of ST0701, purified BuChE (3 U/ml) was incubated with WP for 5 min in the aggregometer with stirring at 900 r.p.m. before the addition of the test compounds ST0701 which was incubated with the WP for a further 10 min, prior to the addition of collagen (5 ug/ml).
as §4
Phenylmethylsulphonylfluoride (PMSF) 20, 50 and 100 μM dissolved in EtOH (<0.2% EtOH, which pilot studies had determined not to affect platelet aggregation) was preincubated in WP in the aggregometer for 5 min with stirring at 900 r.p.m. before the addition of test compound ST0702 to the WP, which was further incubated for 10 min prior to the addition of collagen (2 μg/ml) to induce platelet aggregation.

[5] = test system: platelet rich plasma (PRP); test: Collagen-induced platelet aggregation in platelet rich plasma (light aggregometry); type: cell-based, human; conditions: 200 μM in PRP, collagen 5 μg/ml
Procedure: as §1, §2, §3, §4

washed platelet samples = test: Collagen-induced platelet aggregation in the TCIPA studies (washed platelets); type: cell-based, human; conditions: collagen 2 μg/ml (FIG. 16B)
59M cells [6] = test: Flow-mediated TCIPA using an ultrasound standing wave trap; type: cell-based, human; conditions: 500 μM, 59M cell cluster
From the text: The ultrasound trap had three essential features: a transducer (Ferroperm, Kvistgard, Denmark) in a housing of radial symmetry, an aqueous phase and a reflector that provided optical access from above. The trap was driven with a function generator (Hewlett Packard 33120A, UK). Microscopic observation occurred with a fast, high-resolution XM10 camera (Soft Imaging System, SIS, GmbH) mounted on an Olympus BX51M reflection epi-fluorescence microscope. Images were captured by a standard PC equipped with the Cell-D image acquisition software (Soft Imaging System, SIS, GmbH).
The experimental procedure was as follows: 59M cells were introduced into the trap, the acoustic field (2.13 MHz, 0.85 MPa) was initiated and cell clusters were allowed to form. Clusters remained levitated in suspension for 10 min. Washed platelets (2.5×10^8/ml) were introduced into the trap at a flow rate of 3 μl/min. Perfusion of washed platelets around the cluster proceeded following initial adhesion of platelets to the periphery of the cluster.
To study the effect of aspirin and aspirin prodrugs in TCIPA, washed platelets were pre-incubated for 10 min at room temperature with the inhibitors: aspirin, nicotinate, ISAS, ISMNA, ortho and meta (all at a concentration of 500 μM), prior to their introduction into the ultrasound trap. […] The cell cluster-platelet aggregate remained under microscopic observation for further 10 min (the upper time limit established in the current study) under continuous flow conditions. Further experiments were performed with ST0702 salicylate (500 μM).

HT1080 cells = test: Tumour cell-induced platelet aggregation (TCIPA), static conditions, HT1080; type: cell-based, human; conditions: 500 μM
Procedure: Three human tumor cell lines, 59M ovarian adenocarcinoma, Caco-2 colon adenocarcinoma and HT1080 fibrocarcinoma cells, were obtained from the European Cell Culture Collection. Cell lines were cultured as monolayers in 75 ml culture flasks at 37° C. in a humidified atmosphere with 5% CO2. 59M cells and HT1080 were cultured in Dulbecco's […] (DMEM) supplemented with 10% fetal bovine serum (FBS) and gentamycin (0.05 mg/ml), penicillin (0.06 mg/ml), and streptomycin (0.01 mg/ml). Caco-2 cell line was cultured in Minimum Essential Medium (MEM) supplemented with 20% FBS and the same antibiotics as above. The cells were supplied with fresh medium and subcultured three times each week.
Washed platelet suspensions (2.5×10^11 platelets 1^−1) were prepared from blood an mixed with the anticoagulant sodium citrate (0.315% final concentration).
The interactions between platelets and tumor cells were measured by light aggregometry (Alonso-Escolano et al., 2004; Jurasz et al., 2001b; Radomski et al., 1991). Briefly, washed platelet samples (2.5×10^8/ml) were placed in an eight channel PAP 8 aggregometer (BIO/DATA CORPORATION, Horsham, Pa., U.S.A.) and incubated for 10 min at 37° C., with stirring at 900 r.p.m., prior to the addition of aggregating agents. […] TCIPA was initiated by the addition of cancer cells, and monitored by Aggro-Link software for at least 30 min. For experiments using inhibitors, aggregation was initiated after 10 min preincubation with these compounds.
To study the ability of the aspirin pro-drugs to inhibit TCIPA in WP cancer cell lines such as HT1080 cells (2×10^5/ml), CaCo2 cells (1.5×10^3/ml) or 59M cells (1×10^3/ml) were used in the presence or absence of aspirin nicotinate (ST0702), ISAS, orthonitrate and metanitrate at 300 and 500 μM. Platelet aggregation was initiated in washed platelets (WP) using HT1080 cells (2×10^5/ml), CaCo2 cells (1.5×10^3/ml) or 59M cells (1×10^3/ml). In addition, regular aspirin (300 and 500 uM) was used as control. Results were expressed in percent changes in maximal light transmission, with 100% representing light transmission of platelet medium alone. ST0702 is hydrolyzed by plasma esterases along two pathways liberating both aspirin and 5-nicotinate salicylate (ST0702 salicylate)(metabolite). The latter is further processed to isosorbide-5-nicotinate and eventually to nicotinic acid. The orthonitrate and metanitrate compounds liberate aspirin and nitric oxide (NO). ISAS meanwhile is hydrolysed to aspirin and salicylic acid. Aspirin (300 and 500 μM) was used in control experiments. Results were expressed in percent changes in maximal light transmission, with 100% representing light transmission of platelet medium alone. Further experiments were performed with ST0702 salicylate (500 μM).

[7] = In-vitro half life of the ST0702 metabolite; type: in vitro ADME
TCIPA = conditions: at up to 3 mM

CC(=O)Oc1ccccc1C(=O)Oc1cccc(CO[N+](=O)[O-])c1 [NCX-4016]
inhibition of platelet aggregation in WP (platelets; NO and cGMP independent): inhibits platelet aggregation | inhibition of platelet aggregation in PRP (platelets): does not inhibit platelet aggregation

CC(=O)Oc1ccccc1C(=O)OC1COC2C(OC(=O)c3ccccc3O)COC12 (stereo not shown) [ST0701, isosorbide-2-aspirinate-5-salicylate]
59M-mediated increase in platelet surface P-selectin (P-selectin [1]): failed to prevent | inhibition of ADP (10 μM) induced aggregation in PRP, comparison in words ([2]; ADP 10 μM, PRP): more efficacious than aspirin | effect of ODQ pretreatment on inhibition of ADP induced aggregation ([2]; ODQ 10 μM, compounds 100 μM, ADP 10 μM, PRP): increased the inhibition | inhibition of TCIPA induced by 59M (59M cells [3]): able to inhibit; also recorded: inhibited | activation of GPIIb/IIIa in PRP (GPIIb/IIIa): significantly suppressed | translocation of P-selectin in PRP (P-selectin [4]; PRP): significantly suppressed | translocation of P-selectin in WP (P-selectin [4]; WP): not in WP | inhibitory actions in WP after addition of human BuChE purified from plasma (washed platelets (WP); BuChE 3 U/ml, collagen 5 μg/ml): rescued | inhibition of collagen induced aggregation in WP (washed platelets (WP); at 500 μM, collagen 5 μg/ml): 50% | IC50 (washed platelets (WP); inhibition of platelet aggregation in response to collagen (5 (unit uncertain)), washed platelets): 200 µM | inhibition of aggregation at 2 min preincubation [5]: 40% | preincubation time at which inhibition is maximal [5]: 5 min

O=C(O[C@@H]1CO[C@H]2[C@@H]1OC[C@@H]2OC(=O)c1ccccc1O)c1cccnc1 [ST0702 salicylate, isosorbide-2-salicylate-5-nicotinate]
inhibition of collagen-induced platelet aggregation (washed platelet samples): did not inhibit collagen-induced platelet aggregation | inhibition of ADP-induced aggregation in PRP ([2]; 500 μM, ADP 10 μM): inhibited ADP-induced aggregation | inhibition of ADP-induced aggregation in PRP in the presence of eserine ([2]; 500 μM, eserine 10 μM): became significant | inhibition of TCIPA under flow conditions (platelet-tumour cell disruption) (59M cells [6]): did not inhibit TCIPA under flow conditions | inhibition of TCIPA in response to HT1080, no flow (HT1080 cells): inhibit TCIPA | half life in-vitro [7]: very short

O=C(OC1COC2C(O)COC12)c1cccnc1 (stereo not shown) [isosorbide-5-nicotinate]
inhibition of TCIPA (TCIPA): did not inhibit TCIPA

O=C(O)c1cccnc1 [nicotinic acid, reference compound]
inhibition of TCIPA (TCIPA): did not inhibit TCIPA
